Assay results as given in ChEMBL document CHEMBL1177694, “Multivalent catanionic GalCer analogs derived from first generation dendrimeric phosphonic acids” (Bioorg Med Chem, 2010).

Experiments:
[1] = tested on: Human immunodeficiency virus 1; assay: Antiviral activity against HIV1 LAI infected in human CEM-SS cells assessed as inhibition of viral replication after 5 days by MTT assay; format: functional, organism-based; conditions: Human immunodeficiency virus 1, LAI, 120 h
[2] = Therapeutic index, ratio of CC50 for human CEM-SS cells to IC50 for HIV1 LAI infected in human CEM-SS cells; format: cell-based; conditions: CEM-SS cells (uninfected and infected with HIV1 LAI), read-out: Ratio CC50/IC50
[3] = Cytotoxicity against human CEM-SS cells after 5 days by MTT assay; format: cell-based

| Compound | IC50 [1] | selectivity ratio [2] | CC50 at 120 h [3] |
| --- | --- | --- | --- |
| CCCCCCCCCCCCCCCCNOC(CO)C(O)C(OC1OC(CO)C(O)C(O)C1O)C(O)CO.CCCCCCCCCCCCCCCCNOC(CO)C(O)C(OC1OC(CO)C(O)C(O)C1O)C(O)CO.CCCCCCCCCCCCCCCCNOC(CO)C(O)C(OC1OC(CO)C(O)C(O)C1O)C(O)CO.CCCCCCCCCCCCCCCCNOC(CO)C(O)C(OC1OC(CO)C(O)C(O)C1O)C(O)CO.CCCCCCCCCCCCCCCCNOC(CO)C(O)C(OC1OC(CO)C(O)C(O)C1O)C(O)CO.CCCCCCCCCCCCCCCCNOC(CO)C(O)C(OC1OC(CO)C(O)C(O)C1O)C(O)CO.CN(/N=C/c1ccc(OP2(Oc3ccc(/C=N/N(C)P(=S)(Oc4ccc(/C=C/P(=O)(O)O)cc4)Oc4ccc(/C=C/P(=O)(O)O)cc4)cc3)=NP(Oc3ccc(/C=N/N(C)P(=S)(Oc4ccc(/C=C/P(=O)(O)O)cc4)Oc4ccc(/C=C/P(=O)(O)O)cc4)cc3)(Oc3ccc(/C=N/N(C)P(=S)(Oc4ccc(/C=C/P(=O)(O)O)cc4)Oc4ccc(/C=C/P(=O)(O)O)cc4)cc3)=NP(Oc3ccc(/C=N/N(C)P(=S)(Oc4ccc(/C=C/P(=O)(O)O)cc4)Oc4ccc(/C=C/P(=O)(O)O)cc4)cc3)(Oc3ccc(/C=N/N(C)P(=S)(Oc4ccc(/C=C/P(=O)(O)O)cc4)Oc4ccc(/C=C/P(=O)(O)O)cc4)cc3)=N2)cc1)P(=S)(Oc1ccc(/C=C\P(=O)(O)O)cc1)Oc1ccc(/C=C/P(=O)(O)O)cc1 (stereo unspecified) | 250 nM | 6.4 | 1600 nM |
| CCCCCCCCCCCCCCCCNOC(CO)C(O)C(OC1OC(CO)C(O)C(O)C1O)C(O)CO.CCCCCCCCCCCCCCCCNOC(CO)C(O)C(OC1OC(CO)C(O)C(O)C1O)C(O)CO.CCCCCCCCCCCCCCCCNOC(CO)C(O)C(OC1OC(CO)C(O)C(O)C1O)C(O)CO.CCCCCCCCCCCCCCCCNOC(CO)C(O)C(OC1OC(CO)C(O)C(O)C1O)C(O)CO.CCCCCCCCCCCCCCCCNOC(CO)C(O)C(OC1OC(CO)C(O)C(O)C1O)C(O)CO.CCCCCCCCCCCCCCCCNOC(CO)C(O)C(OC1OC(CO)C(O)C(O)C1O)C(O)CO.CN(/N=C/c1ccc(OP2(Oc3ccc(/C=N/N(C)P(=S)(Oc4ccc(C(O)P(=O)(O)O)cc4)Oc4ccc(C(O)P(=O)(O)O)cc4)cc3)=NP(Oc3ccc(/C=N/N(C)P(=S)(Oc4ccc(C(O)P(=O)(O)O)cc4)Oc4ccc(C(O)P(=O)(O)O)cc4)cc3)(Oc3ccc(/C=N/N(C)P(=S)(Oc4ccc(C(O)P(=O)(O)O)cc4)Oc4ccc(C(O)P(=O)(O)O)cc4)cc3)=NP(Oc3ccc(/C=N/N(C)P(=S)(Oc4ccc(C(O)P(=O)(O)O)cc4)Oc4ccc(C(O)P(=O)(O)O)cc4)cc3)(Oc3ccc(/C=N/N(C)P(=S)(Oc4ccc(C(O)P(=O)(O)O)cc4)Oc4ccc(C(O)P(=O)(O)O)cc4)cc3)=N2)cc1)P(=S)(Oc1ccc(C(O)P(=O)(O)O)cc1)Oc1ccc(C(O)P(=O)(O)O)cc1 (stereo unspecified) | 210 nM | 4 | 1200 nM |
